Results: the RepoRT retention time repository (doi:10.1016/j.scitotenv.2015.08.078)

assay: RP, Waters ACQUITY UPLC BEH C18, 100 × 2.1 mm, 1.7 µm, 0.3 mL/min, estimated dead time 0.73 min; A: water + 0.1% formic acid, pH 3; B: methanol + 0.1% formic acid, pH 3; gradient (min/%B) 0/10 14/90 16/90 18/10; settings: stereoisomer not certain

SMILES	LC retention time [min]
CSc1nnc(C(C)(C)C)c(=O)n1N [Metribuzin]	7.06
CC(Cc1ccc(C(C)(C)C)cc1)CN1CCCCC1 (stereo not drawn) [Fenpropidin]	10
CC(=O)OCC12CC(OC(=O)CC(C)C)C(C)=CC1OC1C(O)C(O)C2(C)C12CO2 (stereo not drawn) [HT-2 Toxin]	7.95
CN(C)c1nc(=O)n(C2CCCCC2)c(=O)n1C [Hexazinone]	7.56
COc1cc2c(c3oc(=O)c4c(c13)CCOC4=O)C1C=COC1O2 (stereo not drawn) [Aflatoxin G1]	7.15
NC(C(=O)NC1C(=O)N2C(C(=O)O)=C(Cl)CSC12)c1ccccc1 (stereo not drawn) [Cefaclor]	4.02
Cc1ncc([N+](=O)[O-])n1CCCO [Ternidazole]	2.89
CCC1CCCC(OC2CCC(N(C)C)C(C)O2)C(C)C(=O)C2=CC3C(C=CC4CC(OC5OC(C)C(OC)C(OC)C5OC)CC43)C2CC(=O)O1 (stereo not drawn) [Spinosyn A]	12
Cc1cccc(Nc2ccccc2C(=O)O)c1C [Mefenamic acid]	13.4
CC1(C)SC2C(NC(=O)Cc3ccccc3)C(=O)N2C1C(=O)O (stereo not drawn) [Penicillin G]	8.55
Cc1cccc(C)c1NC1=NCCCS1 [Xylazine]	4.92
Nc1ccc(S(=O)(=O)Nc2ccccn2)cc1 [Sulfapyridine]	2.55
CCNc1nc(Cl)nc(NC(C)C)n1 [Atrazine]	9.34
CCOP(=S)(Oc1ccc([N+](=O)[O-])cc1)c1ccccc1 (stereo not drawn) [EPN]	12.2
CNC(=O)ON=C(C)SC [Methomyl]	3.09
CSc1nc(N)nc(NC(C)(C)C)n1 [Deethylterbutryn]	9.3
CC(C)N(Cc1ccccc1)C(=O)C(C)(C)C [Tebutam]	11.1
CC1(C)CON(Cc2ccccc2Cl)C1=O [Clomazone]	9.54
CCCSC(=O)N(CCC)CCC [Vernolat]	12.2
CCCC1OC2CC3C4CCC5=CC(=O)C=CC5(C)C4C(O)CC3(C)C2(C(=O)CO)O1 (stereo not drawn) [Budesonide]	10.9
CNC(=O)CSP(=S)(OC)OC [Dimethoate]	5.37
CCOC(=O)c1ccccc1C(=O)OCC [Diethyl phthalate]	9.3

SMILES	LC retention time [min]
CC1CN(C2CCCCCCCCCCC2)CC(C)O1 (stereo not drawn) [Dodemorph]	13.4
Cc1cccc(C)c1N(Cn1cccn1)C(=O)CCl [Metazachlor]	8.95
Cc1ccnc(NS(=O)(=O)c2ccc(N)cc2)n1 [Sulfamerazine]	2.75
CCCCC(CC)COC(=O)CCCCC(=O)OCC(CC)CCCC (stereo not drawn) [Bis-(2-ethylhexyl) adipate]	15.3
CCS(=O)(=O)c1nc2ccccn2c1S(=O)(=O)NC(=O)Nc1nc(OC)cc(OC)n1 [Sulfosulfuron]	6.42
CCOC(=O)C(Cl)Cc1cc(-n2nc(C)n(C(F)F)c2=O)c(F)cc1Cl (stereo not drawn) [Carfentrazone-ethyl]	11.4
CC(C)OC(=O)C(C)N(C(=O)c1ccccc1)c1ccc(F)c(Cl)c1 (stereo not drawn) [Flamprop-isopropyl]	11.7
COP(=S)(OC)SCN1C(=O)c2ccccc2C1=O [Phosmet]	9.52
COC1CC(OC2C(C)OC(OC3C(C)=CCC4CC(CC5(C=CC(C)C(C6CCCCC6)O5)O4)OC(=O)C4C=C(C)C(O)C5OCC(=CC=CC3C)C45O)CC2OC)OC(C)C1O (stereo not drawn) [Doramectine]	15.7
CCCCCc1cc(O)c2c(c1)OC(C)(C)C1CC=C(C(=O)O)CC21 (stereo not drawn) [THC-COOH]	13.9
CCN(CC)C(=O)SCc1ccc(Cl)cc1 [Thiobencarb]	12.9
CNC(=O)c1cc(Cl)cc(C)c1NC(=O)c1cc(Br)nn1-c1ncccc1Cl [Chlorantraniliprole]	10.4
CC1=C(C(=O)O)N2C(=O)C(NC(=O)C(N)c3ccccc3)C2SC1 (stereo not drawn) [Cefalexin]	3.25
Nc1nc(N)nc(NC2CC2)n1 [Cyromazine]	1.45
Cc1ccc(N(SC(F)(Cl)Cl)S(=O)(=O)N(C)C)cc1 [Tolyfluanid]	12.4
Cn1c([N+](=O)[O-])cnc1COC(N)=O [Ronidazole]	1.79
O=C(O)Cn1c(=O)sc2cccc(Cl)c21 [Benazolin]	4.59
CCC(C)(C)C(=O)OC1CC(C)C=C2C=CC(C)C(CCC3CC(O)CC(=O)O3)C21 (stereo not drawn) [Simvastatin]	14.2
COC(=O)c1ccccc1S(=O)(=O)NC(=O)Nc1nc(OC(F)F)cc(OC(F)F)n1 [Primisulfuron-methyl]	8.86
CC(=O)OCC12CC(OC(=O)CC(C)C)C(C)=CC1OC1C(O)C(OC(C)=O)C2(C)C12CO2 (stereo not drawn) [T2 Toxin]	9.98
CC1(C)CCC(=Cc2ccc(Cl)cc2)C1(O)Cn1cncn1 (stereo not drawn) [Triticonazole]	11
CCN(C(=O)SCc1ccccc1)C(C)C(C)C (stereo not drawn) [Esprocarb]	12.8

SMILES	LC retention time [min]
O=C(NC(=O)c1c(F)cccc1F)Nc1cc(Cl)c(Oc2ncc(C(F)(F)F)cc2Cl)c(Cl)c1 [Chlorfluazuron]	13.9
COc1cc2c(c3c1C1CCC(=O)C1C(=O)O3)C1CCOC1O2 (stereo not drawn) [Aflatoxin B2]	7.55
CCOP(=S)(OCC)OP(=S)(OCC)OCC [Sulfotep]	11.5
CN(C)c1ccc(C(c2ccccc2)c2ccc(N(C)C)cc2)cc1 [Leucomalachite green]	10.4
CCS(=O)CCSP(=O)(OC)OC (stereo not drawn) [Oxydemeton-methyl]	3.15
CN(C)C(=O)Nc1cccc(C(F)(F)F)c1 [Fluomethuron]	8.25
CCOP(=S)(OCC)Oc1ccc(=O)n(-c2ccccc2)n1 [Pyridaphenthion]	12.1
Fc1ccc(C2CCNCC2COc2ccc3c(c2)OCO3)cc1 (stereo not drawn) [Paroxetine]	9.22
Cc1[nH]c(=O)n(C(C)(C)C)c(=O)c1Cl [Terbacil]	7.42
CC12CCC(=O)C=C1CCC1C2C(=O)CC2(C)C1CCC2(O)C(=O)CO (stereo not drawn) [Cortisone]	8.13
Cc1nn(C)c(Oc2ccccc2)c1C=NOCc1ccc(C(=O)OC(C)(C)C)cc1 [Fenpyroximate]	13.7
CC1(C)SC2C(NC(=O)C(N)c3ccccc3)C(=O)N2C1C(=O)O (stereo not drawn) [Ampicillin]	4.95
COP(=O)(OC)OC=C(Cl)Cl [Dichlorvos]	7.31
CCCS(=O)(=O)c1ccc2nc(NC(=O)OC)[nH]c2c1 [Albendazole sulfone]	6.16
CN(C)C(=O)Nc1ccc(Cl)c(Cl)c1 [Diuron]	9.72
CCCOC(=O)c1ccccc1C(=O)OCCC [Dipropyl phthalate]	11.1
CCCCC(CC)COC(=O)c1ccccc1C(=O)OCC(CC)CCCC (stereo not drawn) [Bis-(2-ethylhexyl) phthalate]	15.3
CCOP(=S)(OCC)ON=C(C#N)c1ccccc1 [Phoxim]	11.9
COc1cc(OC)nc(NC(=O)NS(=O)(=O)c2ncccc2C(=O)N(C)C)n1 [Nicosulfuron]	5.39
O=C1OCCN1N=Cc1ccc([N+](=O)[O-])o1 [Furazolidone]	2.96
Clc1cccc(N2CCNCC2)c1 [mCCP]	5.23
CCCC1COC(Cn2cncn2)(c2ccc(Cl)cc2Cl)O1 (stereo not drawn) [Propiconazole]	12.5

SMILES	LC retention time [min]
CC(C)(C)NCC(O)c1ccc(N)c(C#N)c1 (stereo not drawn) [Cimbuterol]	2.78
COP(=S)(OC)SCn1nnc2ccccc2c1=O [Azinphos-methyl]	10.1
O=C(C1CCCCC1)N1CC(=O)N2CCc3ccccc3C2C1 (stereo not drawn) [Praziquantel]	10.1
Nc1ccc(S(=O)(=O)Nc2ncccn2)cc1 [Sulfadiazine]	2.09
COc1c(N2CC3CCCNC3C2)c(F)cc2c(=O)c(C(=O)O)cn(C3CC3)c12 (stereo not drawn) [Moxifloxacin]	5.23
CN(C)C(=O)Nc1ccc(-n2nc(C(C)(C)C)oc2=O)c(Cl)c1 [Dimefuron]	9.63
CC12C=CC(=O)C=C1CCC1C2CCC2(C)C(=O)CCC12 (stereo not drawn) [1.4-Androstadiene-3.17-dione (Boldione)]	9.82
CCCSP(=O)(OCC)Oc1ccc(Br)cc1Cl (stereo not drawn) [Profenofos]	12.7
COc1nn(CSP(=S)(OC)OC)c(=O)s1 [Methidathion]	9.91
O=[N+]([O-])c1cnc(CO)n1CCO [Hydroxymetronidazole (MNZOH)]	1.9
COc1ccc2nc(S(=O)Cc3ncc(C)c(OC)c3C)[nH]c2c1 (stereo not drawn) [Omeprazole]	7.14
COC(=O)C1C2CCC(CC1OC(=O)c1ccccc1)N2 (stereo not drawn) [Norcocaine]	6.29
CCC(=O)C(CC(C)N(C)C)(c1ccccc1)c1ccccc1 (stereo not drawn) [Methadone]	10.4
O=C(Nc1ccccc1)Nc1ccnc(Cl)c1 [Forchlorfenuron]	8.95
CCCCC1=NC2(CCCC2)C(=O)N1Cc1ccc(-c2ccccc2-c2nn[nH]n2)cc1 [Irbesartan]	10.4
CC1COc2c(N3CCN(C)CC3)c(F)cc3c(=O)c(C(=O)O)cn1c23 (stereo not drawn) [Ofloxacin]	4.08
CNC(=O)CSP(=O)(OC)OC [Omethoate]	2.5
O=C(CCCN1CCN(c2ccccn2)CC1)c1ccc(F)cc1 [Azaperone]	5.63
CCCCCCCCSC(=O)Oc1cc(Cl)nnc1-c1ccccc1 [Pyridate]	14.3
CCNc1nc(NC(C)(C)C)nc(SC)n1 [Terbutryn]	9.91
CC(C)(C)NCC(O)c1cc(Cl)c(N)c(Cl)c1 (stereo not drawn) [Clenbuterol]	5.15
CCC1OC(=O)C(C)C(OC2CC(C)(OC)C(O)C(C)O2)C(C)C(OC2OC(C)CC(N(C)C)C2O)C(C)(O)CC(C)C(=NOCOCCOC)C(C)C(O)C1(C)O (stereo not drawn) [Roxithromycin]	10.7
